#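 A five-concentration, 48-hour dose response in 96-well plates underlies each endpoint, interpolated linearly between surrounding concentrations. GI50 is the concentration that inhibits growth by half.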 Activity calls are given as the source filed them. Cut-off read from the data, not from the text of the source: active = GI50 up to about 1.1 µM and inactive = higher.
# Assays:
# Assay in all cases: growth of human tumour cells (NCI), 48 h
# [1] = system: 786-0
# [2] = system: A498
# [3] = system: A549
# [4] = system: ACHN
# [5] = system: CCRF-CEM
# [6] = system: COLO 205
# [7] = system: DLD-1
# [8] = system: DMS-114
# [9] = system: EKVX
# [10] = system: HCC 2998
# [11] = system: HCT-116
# [12] = system: HCT-15
# [13] = system: HL-60
# [14] = system: HOP-18
# [15] = system: HOP-62
# [16] = system: HOP-92
# [17] = system: HT-29
# [18] = system: IGROV-1
# [19] = system: K562
# [20] = system: KM-20L2
# [21] = system: KM12
# [22] = system: LOX IMVI
# [23] = system: LXFL 529
# [24] = system: M14
# [25] = system: M19-MEL
# [26] = system: MOLT-4
# [27] = system: Malme-3M
# [28] = system: NCI-H226
# [29] = system: NCI-H23
# [30] = system: NCI-H460
# [31] = system: NCI-H522
# [32] = system: OVCAR-3
# [33] = system: OVCAR-4
# [34] = system: OVCAR-5
# [35] = system: OVCAR-8
# [36] = system: RPMI-8226
# [37] = system: RXF 393
# [38] = system: RXF 631
# [39] = system: SF-268
# [40] = system: SF-295
# [41] = system: SF-539
# [42] = system: SK-MEL-28
# [43] = system: SK-MEL-2
# [44] = system: SK-OV-3
# [45] = system: SN12C
# [46] = system: SNB-19
# [47] = system: SNB-75
# [48] = system: SNB-78
# [49] = system: SW-620
# [50] = system: TK-10
# [51] = system: U-251
# [52] = system: UACC-257
# [53] = system: UACC-62
# [54] = system: UO-31
# [55] = system: XF498
# [56] = system: CAKI-1
# [57] = system: DMS-273
# [58] = system: SK-MEL-5
# [59] = system: SR
smiles,measurement,setting,value
CC1=C(C(=O)Nc2ccc([N+](=O)[O-])cc2)C(c2cccc([N+](=O)[O-])c2)C(C(=O)Nc2ccc([N+](=O)[O-])cc2)=C(C)N1,GI50,[1],48.2 µM (inactive)
same,GI50,[2],32.8 µM (inactive)
same,GI50,[3],29.7 µM (inactive)
same,GI50,[4],20 µM (inactive)
same,GI50,[5],12.6 µM (inactive)
same,GI50,[6],45.8 µM (inactive)
same,GI50,[7],9.66 µM (inactive)
same,GI50,[8],8.53 µM (inactive)
same,GI50,[9],48.2 µM (inactive)
same,GI50,[10],25.6 µM (inactive)
same,GI50,[11],5.97 µM (inactive)
same,GI50,[12],61.7 µM
same,GI50,[13],16.4 µM (inactive)
same,GI50,[14],> 100 µM (inactive)
same,GI50,[15],64.3 µM (inactive)
same,GI50,[16],5.31 µM (inactive)
same,GI50,[17],21.9 µM (inactive)
same,GI50,[18],21.2 µM (inactive)
same,GI50,[19],9.93 µM (inactive)
same,GI50,[20],16.6 µM (inactive)
same,GI50,[21],12.1 µM (inactive)
same,GI50,[22],11.1 µM (inactive)
same,GI50,[23],8.53 µM (inactive)
same,GI50,[24],24.3 µM (inactive)
same,GI50,[25],23 µM (inactive)
same,GI50,[26],5.35 µM (inactive)
same,GI50,[27],25.2 µM (inactive)
same,GI50,[28],58.3 µM (inactive)
same,GI50,[29],13.3 µM (inactive)
same,GI50,[30],27.7 µM (inactive)
same,GI50,[31],20.5 µM (inactive)
same,GI50,[32],44.5 µM (inactive)
same,GI50,[33],48.6 µM (inactive)
same,GI50,[34],> 100 µM (inactive)
same,GI50,[35],17.8 µM (inactive)
same,GI50,[36],7.78 µM (inactive)
same,GI50,[37],16.2 µM (inactive)
same,GI50,[38],> 100 µM (inactive)
same,GI50,[39],21.6 µM (inactive)
same,GI50,[40],30.1 µM (inactive)
same,GI50,[41],60.3 µM (inactive)
same,GI50,[42],30.7 µM (inactive)
same,GI50,[43],33.1 µM (inactive)
same,GI50,[44],8.45 µM (inactive)
same,GI50,[45],30.5 µM (inactive)
same,GI50,[46],52.7 µM (inactive)
same,GI50,[47],23.7 µM (inactive)
same,GI50,[48],> 100 µM (inactive)
same,GI50,[49],31.9 µM (inactive)
same,GI50,[50],37.5 µM (inactive)
same,GI50,[51],9.71 µM (inactive)
same,GI50,[52],16 µM (inactive)
same,GI50,[53],5.28 µM (inactive)
same,GI50,[54],> 100 µM (inactive)
same,GI50,[55],2.87 µM (inactive)
COc1ccc(S(=O)(=O)N/N=C/c2cc(I)cc([N+](=O)[O-])c2O)cc1OC,GI50,[1],45.9 µM (inactive)
same,GI50,[2],54.2 µM (inactive)
same,GI50,[3],> 100 µM (inactive)
same,GI50,[4],30.4 µM (inactive)
same,GI50,[56],31.6 µM (inactive)
same,GI50,[5],34.4 µM (inactive)
same,GI50,[6],50.9 µM (inactive)
same,GI50,[7],36.3 µM (inactive)
same,GI50,[57],35.2 µM (inactive)
same,GI50,[9],44.5 µM (inactive)
same,GI50,[10],50.6 µM (inactive)
same,GI50,[12],36.6 µM
same,GI50,[13],23 µM (inactive)
same,GI50,[14],21.6 µM (inactive)
same,GI50,[16],19.1 µM (inactive)
same,GI50,[17],46.3 µM (inactive)
same,GI50,[18],37.7 µM (inactive)
same,GI50,[19],35.2 µM (inactive)
same,GI50,[20],> 100 µM (inactive)
same,GI50,[21],31.3 µM (inactive)
same,GI50,[22],43.3 µM (inactive)
same,GI50,[23],27 µM (inactive)
same,GI50,[24],36.1 µM (inactive)
same,GI50,[25],33 µM (inactive)
same,GI50,[26],24.8 µM (inactive)
same,GI50,[27],28.7 µM (inactive)
same,GI50,[28],22.7 µM (inactive)
same,GI50,[30],55 µM (inactive)
same,GI50,[32],24.5 µM (inactive)
same,GI50,[33],25.2 µM (inactive)
same,GI50,[34],> 100 µM (inactive)
same,GI50,[35],53.2 µM (inactive)
same,GI50,[36],24 µM (inactive)
same,GI50,[38],38.8 µM (inactive)
same,GI50,[40],29 µM (inactive)
same,GI50,[43],22.5 µM (inactive)
same,GI50,[58],19.8 µM (inactive)
same,GI50,[44],32.4 µM (inactive)
same,GI50,[45],32.8 µM (inactive)
same,GI50,[46],26.3 µM (inactive)
same,GI50,[48],24.7 µM (inactive)
same,GI50,[49],47.8 µM (inactive)
same,GI50,[50],62.1 µM (inactive)
same,GI50,[51],32.7 µM (inactive)
same,GI50,[52],39 µM (inactive)
same,GI50,[53],25.8 µM (inactive)
same,GI50,[54],22 µM (inactive)
same,GI50,[55],24.1 µM (inactive)
CC1NOC(=O)C1/N=N/c1ccccc1Cl (stereo not given),GI50,[1],26.5 µM (inactive)
same,GI50,[2],17 µM (inactive)
same,GI50,[3],63.7 µM (inactive)
same,GI50,[4],27 µM (inactive)
same,GI50,[56],25.5 µM (inactive)
same,GI50,[5],40.9 µM (inactive)
same,GI50,[6],57.7 µM (inactive)
same,GI50,[7],39.4 µM (inactive)
same,GI50,[8],34.7 µM (inactive)
same,GI50,[9],88.9 µM (inactive)
same,GI50,[10],48.3 µM (inactive)
same,GI50,[11],37.2 µM (inactive)
same,GI50,[13],20 µM (inactive)
same,GI50,[14],35 µM (inactive)
same,GI50,[15],92.3 µM (inactive)
same,GI50,[16],21.6 µM (inactive)
same,GI50,[18],73.1 µM (inactive)
same,GI50,[19],40.7 µM (inactive)
same,GI50,[20],68.4 µM (inactive)
same,GI50,[21],64.7 µM (inactive)
same,GI50,[22],20.6 µM (inactive)
same,GI50,[23],45.5 µM (inactive)
same,GI50,[24],40.6 µM (inactive)
same,GI50,[25],23 µM (inactive)
same,GI50,[26],> 10 µM (inactive)
same,GI50,[27],25.5 µM (inactive)
same,GI50,[29],29.9 µM (inactive)
same,GI50,[30],45.1 µM (inactive)
same,GI50,[31],17.4 µM (inactive)
same,GI50,[32],33.8 µM (inactive)
same,GI50,[33],39.9 µM (inactive)
same,GI50,[34],34.8 µM (inactive)
same,GI50,[35],> 100 µM (inactive)
same,GI50,[36],20.4 µM (inactive)
same,GI50,[37],26.4 µM (inactive)
same,GI50,[38],37.1 µM (inactive)
same,GI50,[39],35.1 µM (inactive)
same,GI50,[40],74.1 µM (inactive)
same,GI50,[41],24.5 µM (inactive)
same,GI50,[42],32.7 µM (inactive)
same,GI50,[43],25.4 µM (inactive)
same,GI50,[58],13.8 µM (inactive)
same,GI50,[44],28.3 µM (inactive)
same,GI50,[45],40.6 µM (inactive)
same,GI50,[46],51.1 µM (inactive)
same,GI50,[47],21.2 µM (inactive)
same,GI50,[48],52.5 µM (inactive)
same,GI50,[49],> 100 µM (inactive)
same,GI50,[50],90.4 µM (inactive)
same,GI50,[51],42.4 µM (inactive)
same,GI50,[52],17.8 µM (inactive)
same,GI50,[53],31.1 µM (inactive)
same,GI50,[54],13.9 µM (inactive)
same,GI50,[55],27.9 µM (inactive)
CNC(C)Cc1ccc(O)cc1 (stereo not given),GI50,[1],> 100 µM (inactive)
same,GI50,[2],> 100 µM (inactive)
same,GI50,[3],> 100 µM (inactive)
same,GI50,[4],> 100 µM (inactive)
same,GI50,[56],> 100 µM (inactive)
same,GI50,[5],> 100 µM (inactive)
same,GI50,[6],> 100 µM (inactive)
same,GI50,[7],> 100 µM (inactive)
same,GI50,[8],> 100 µM (inactive)
same,GI50,[57],> 100 µM (inactive)
same,GI50,[9],> 100 µM (inactive)
same,GI50,[10],> 100 µM (inactive)
same,GI50,[11],> 100 µM (inactive)
same,GI50,[12],> 100 µM
same,GI50,[13],> 100 µM (inactive)
same,GI50,[14],> 100 µM (inactive)
same,GI50,[15],> 100 µM (inactive)
same,GI50,[16],> 100 µM (inactive)
same,GI50,[17],> 100 µM (inactive)
same,GI50,[18],> 100 µM (inactive)
same,GI50,[19],> 100 µM (inactive)
same,GI50,[20],> 100 µM (inactive)
same,GI50,[21],> 100 µM (inactive)
same,GI50,[22],> 100 µM (inactive)
same,GI50,[23],> 100 µM (inactive)
same,GI50,[24],> 100 µM (inactive)
same,GI50,[26],> 100 µM (inactive)
same,GI50,[27],> 100 µM (inactive)
same,GI50,[28],> 100 µM (inactive)
same,GI50,[29],> 100 µM (inactive)
same,GI50,[30],> 100 µM (inactive)
same,GI50,[31],> 100 µM (inactive)
same,GI50,[32],> 100 µM (inactive)
same,GI50,[33],> 100 µM (inactive)
same,GI50,[34],> 100 µM (inactive)
same,GI50,[35],> 100 µM (inactive)
same,GI50,[36],> 100 µM (inactive)
same,GI50,[37],> 100 µM (inactive)
same,GI50,[38],> 100 µM (inactive)
same,GI50,[39],> 100 µM (inactive)
same,GI50,[40],> 100 µM (inactive)
same,GI50,[41],> 100 µM (inactive)
same,GI50,[42],> 100 µM (inactive)
same,GI50,[43],> 100 µM (inactive)
same,GI50,[58],> 100 µM (inactive)
same,GI50,[44],> 100 µM (inactive)
same,GI50,[45],> 100 µM (inactive)
same,GI50,[46],> 100 µM (inactive)
same,GI50,[47],> 100 µM (inactive)
same,GI50,[48],> 100 µM (inactive)
same,GI50,[59],> 100 µM (inactive)
same,GI50,[49],> 100 µM (inactive)
same,GI50,[50],> 100 µM (inactive)
same,GI50,[51],> 100 µM (inactive)
same,GI50,[52],> 100 µM (inactive)
same,GI50,[53],> 100 µM (inactive)
same,GI50,[54],> 100 µM (inactive)
same,GI50,[55],> 100 µM (inactive)

# From ChEMBL document CHEMBL1201862, “PubChem BioAssay data set” (2004)
